These are literature values, as cited in patent US8614315B2, “Cefdinir and cefixime formulations and uses thereof” (priority 2010, dated 2013).

The conditions of series [1]: pH 3.2, room temperature.
Assay in series [2]: not given
This is another data set of the same source.

Turning to `C=CC1=C(C(=O)O)N2C(=O)[C@@H](NC(=O)/C(=N\O)c3csc(N)n3)[C@H]2SC1` [Cefdinir, (6R,7R)-7-[[(2Z)-(2-amino-4-thiazolyl)(hydroxyimino)acetyl]amino]-3-ethenyl-8-oxo-5-thia-1-azabicyclo[4.2.0]oct-2-en-2-carboxylic acid], the “solubility in water, methanol, ethanol, acetone and many other organic solvents” value is recorded as “poor solubility”.
For `C=CC1=C(C(=O)O)N2C(=O)[C@@H](NC(=O)/C(=N\OCC(=O)O)c3csc(N)n3)[C@H]2SC1` [Cefixime, (6R,7R)-7-{[2-(2-amino-1,3-thiazol-4-yl)-2-(carboxymethyloxyimino)acetyl]amino}-3-ethenyl-8-oxo-5-thia-1-azabicyclo [4.2.0]oct-2-en-2-carboxylic acid], in series [1], the “solubility in a solution with a pH value of 3.2” value is 0.5 mg/mL. In series [2] (ethanol, acetone), the “solubility in ethanol and acetone” value is “partially soluble”. For the same compound, in series [2] (ether, ethyl acetate, hexane, water), the “solubility in ether, ethyl acetate, hexane and water” value is “does not dissolve”. Besides, the “solubility in methanol and propylene glycol” value in series [2] (methanol, propylene glycol) is “freely soluble”.
